According to PubChem BioAssay (NCI):
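Five compound concentrations were applied to cells in 96-well plates for 48 hours; endpoints were derived by simple linear interpolation of the resulting dose-response curve. TGI marks complete inhibition of growth.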

What was measured:
Experiment in all cases: NCI-60 cell line screen, 48 h
[1] = test system: 786-0 renal
[2] = test system: A498 renal
[3] = test system: A549 NSCLC
[4] = test system: ACHN renal
[5] = test system: BT-549 breast
[6] = test system: CAKI-1 renal
[7] = test system: CCRF-CEM leukemia
[8] = test system: COLO 205 colon
[9] = test system: DU-145 prostate
[10] = test system: EKVX NSCLC
[11] = test system: HCC-2998 colon
[12] = test system: HCT-116 colon
[13] = test system: HCT-15 colon
[14] = test system: HL-60(TB) leukemia
[15] = test system: HOP-62 NSCLC
[16] = test system: HS 578T breast
[17] = test system: HT29 colon
[18] = test system: IGROV1 ovarian
[19] = test system: K-562 leukemia
[20] = test system: KM12 colon
[21] = test system: LOX IMVI melanoma
[22] = test system: M14 melanoma
[23] = test system: MALME-3M melanoma
[24] = test system: MCF7 breast
[25] = test system: MDA-MB-231 breast
[26] = test system: MDA-MB-435
[27] = test system: MDA-N
[28] = test system: MOLT-4 leukemia
[29] = test system: NCI-H226 lung
[30] = test system: NCI-H23 lung
[31] = test system: NCI-H460 lung
[32] = test system: NCI-H522 lung
[33] = test system: NCI/ADR-RES ovarian
[34] = test system: OVCAR-3 ovarian
[35] = test system: OVCAR-4 ovarian
[36] = test system: OVCAR-5 ovarian
[37] = test system: OVCAR-8 ovarian
[38] = test system: PC-3 prostate
[39] = test system: RPMI-8226 leukemia
[40] = test system: RXF 393 renal
[41] = test system: SF-268 CNS
[42] = test system: SF-295 CNS
[43] = test system: SF-539 CNS
[44] = test system: SK-MEL-2 melanoma
[45] = test system: SK-MEL-28 melanoma
[46] = test system: SK-MEL-5 melanoma
[47] = test system: SK-OV-3 ovarian
[48] = test system: SN12C renal
[49] = test system: SNB-19 CNS
[50] = test system: SR leukemia
[51] = test system: SW-620 colon
[52] = test system: TK-10 renal
[53] = test system: U251 CNS
[54] = test system: UACC-257 melanoma
[55] = test system: UACC-62 melanoma
[56] = test system: UO-31 renal
[57] = test system: HOP-92 NSCLC
[58] = test system: SNB-75 CNS
[59] = test system: T-47D breast

SMILES: CCOC1NC(/N=C/c2ccc(OC)cc2)=C(C#N)C1C#N (stereo not drawn)
- TGI [1]: > 100 µM
- TGI [2]: > 100 µM
- TGI [3]: > 100 µM
- TGI [4]: > 100 µM
- TGI [5]: 73.5 µM
- TGI [6]: > 100 µM
- TGI [7]: 82.2 µM
- TGI [8]: > 100 µM
- TGI [9]: > 100 µM
- TGI [10]: > 100 µM
- TGI [11]: > 100 µM
- TGI [12]: > 100 µM
- TGI [13]: > 100 µM
- TGI [14]: > 100 µM
- TGI [15]: > 100 µM
- TGI [16]: > 100 µM
- TGI [17]: > 100 µM
- TGI [18]: > 100 µM
- TGI [19]: > 100 µM
- TGI [20]: > 100 µM
- TGI [21]: > 100 µM
- TGI [22]: > 100 µM
- TGI [23]: > 100 µM
- TGI [24]: > 100 µM
- TGI [25]: > 100 µM
- TGI [26]: > 100 µM
- TGI [27]: > 100 µM
- TGI [28]: > 100 µM
- TGI [29]: > 100 µM
- TGI [30]: > 100 µM
- TGI [31]: > 100 µM
- TGI [32]: 47.8 µM
- TGI [33]: > 100 µM
- TGI [34]: > 100 µM
- TGI [35]: > 100 µM
- TGI [36]: > 100 µM
- TGI [37]: > 100 µM
- TGI [38]: > 100 µM
- TGI [39]: > 100 µM
- TGI [40]: > 100 µM
- TGI [41]: > 100 µM
- TGI [42]: > 100 µM
- TGI [43]: > 100 µM
- TGI [44]: > 100 µM
- TGI [45]: > 100 µM
- TGI [46]: > 100 µM
- TGI [47]: > 100 µM
- TGI [48]: > 100 µM
- TGI [49]: > 100 µM
- TGI [50]: > 100 µM
- TGI [51]: > 100 µM
- TGI [52]: > 100 µM
- TGI [53]: > 100 µM
- TGI [54]: > 100 µM
- TGI [55]: > 100 µM
- TGI [56]: > 100 µM

SMILES: CN1C=COC1N=C1CCCCC1 (stereo not drawn)
- TGI [1]: > 100 µM
- TGI [2]: > 100 µM
- TGI [3]: > 100 µM
- TGI [4]: > 100 µM
- TGI [6]: 9.16 µM
- TGI [7]: > 100 µM
- TGI [8]: > 100 µM
- TGI [9]: > 100 µM
- TGI [10]: > 100 µM
- TGI [11]: > 100 µM
- TGI [12]: > 100 µM
- TGI [13]: > 100 µM
- TGI [14]: > 100 µM
- TGI [15]: > 100 µM
- TGI [57]: > 100 µM
- TGI [16]: > 100 µM
- TGI [17]: > 100 µM
- TGI [18]: > 100 µM
- TGI [19]: > 100 µM
- TGI [20]: > 100 µM
- TGI [21]: > 100 µM
- TGI [22]: > 100 µM
- TGI [23]: > 100 µM
- TGI [24]: > 100 µM
- TGI [25]: > 100 µM
- TGI [26]: > 100 µM
- TGI [27]: > 100 µM
- TGI [28]: > 100 µM
- TGI [29]: > 100 µM
- TGI [30]: > 100 µM
- TGI [31]: > 100 µM
- TGI [32]: > 100 µM
- TGI [33]: > 100 µM
- TGI [34]: > 100 µM
- TGI [35]: > 100 µM
- TGI [36]: > 100 µM
- TGI [37]: > 100 µM
- TGI [38]: > 100 µM
- TGI [39]: > 100 µM
- TGI [40]: > 100 µM
- TGI [41]: > 100 µM
- TGI [42]: > 100 µM
- TGI [43]: > 100 µM
- TGI [44]: > 100 µM
- TGI [45]: > 100 µM
- TGI [46]: > 100 µM
- TGI [47]: > 100 µM
- TGI [48]: > 100 µM
- TGI [49]: 12 µM
- TGI [58]: > 100 µM
- TGI [50]: > 100 µM
- TGI [51]: 12.1 µM
- TGI [59]: > 100 µM
- TGI [52]: > 100 µM
- TGI [53]: > 100 µM
- TGI [55]: > 100 µM
- TGI [56]: > 100 µM
